Measurements: patent US20230365537A1, “POLO LIKE KINASE 4 INHIBITORS” (ORIC Pharmaceuticals, Inc., priority 2021, published 2023)

How the values were obtained:
human recombinant PLK4 = human recombinant PLK4 (Homo sapiens (Human), UniProt O00444); assay: PLK4 Biochemical Assay (ADP-Glo); conditions: 0.5 nM PLK4, 8.0 µM ATP, 4.7 µM MBP, 6 hours at RT
Summary of the method: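 Recombinant human PLK4 (added at 1.0 nM) was preincubated 15 min at RT with compound in 50 mM HEPES pH 7.5, 10 mM MgCl2, 1 mM EGTA, 1 mM DTT, 0.01% Brij-35, 0.01% BSA. ADP formed was detected by ADP-Glo luminescence (40 min ATP depletion, 30 min detection). IC50 came from a four-parameter fit.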

CHP-134 cells = assay: CHP134 CellTiter-Glo (CTG) Assay; assay type: cell-based; conditions: Homo sapiens, CHP-134, 120 h, 5 days, viable cells by CellTiter-Glo
Summary of the method: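 CHP-134 cells seeded at 200 cells/well for 16 h, then given nine 1:3 serial dilutions in quadruplicate at 37° C, 5% CO2. Viable cells measured by CellTiter-Glo luminescence after 5 days; IC50 calculated from curves.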

[1] = biological target: human recombinant Aurora A (Homo sapiens (Human), UniProt O14965); assay: Aurora A Kinase Biochemical Assay (ADP-Glo); conditions: ratio of Aurora A IC50 to PLK4 IC50 (selectivity)
human recombinant Aurora A, sequence (O14965 whole entry): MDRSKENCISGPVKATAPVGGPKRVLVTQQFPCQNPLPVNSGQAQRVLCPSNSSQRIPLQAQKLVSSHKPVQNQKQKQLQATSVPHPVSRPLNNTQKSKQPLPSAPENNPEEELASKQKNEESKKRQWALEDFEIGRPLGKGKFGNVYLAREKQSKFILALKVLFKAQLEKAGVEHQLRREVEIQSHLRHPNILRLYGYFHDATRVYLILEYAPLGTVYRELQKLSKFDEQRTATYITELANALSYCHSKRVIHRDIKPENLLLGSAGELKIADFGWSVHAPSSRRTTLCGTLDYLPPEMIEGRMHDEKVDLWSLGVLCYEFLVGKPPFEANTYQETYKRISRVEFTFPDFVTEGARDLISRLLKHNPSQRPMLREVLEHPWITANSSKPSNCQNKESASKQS

[2] = biological target: human recombinant Aurora B (Homo sapiens (Human), UniProt Q96GD4); assay: Aurora B Kinase Biochemical Assay (ADP-Glo); conditions: ratio of Aurora B IC50 to PLK4 IC50 (selectivity)
human recombinant Aurora B, sequence (Q96GD4 whole entry): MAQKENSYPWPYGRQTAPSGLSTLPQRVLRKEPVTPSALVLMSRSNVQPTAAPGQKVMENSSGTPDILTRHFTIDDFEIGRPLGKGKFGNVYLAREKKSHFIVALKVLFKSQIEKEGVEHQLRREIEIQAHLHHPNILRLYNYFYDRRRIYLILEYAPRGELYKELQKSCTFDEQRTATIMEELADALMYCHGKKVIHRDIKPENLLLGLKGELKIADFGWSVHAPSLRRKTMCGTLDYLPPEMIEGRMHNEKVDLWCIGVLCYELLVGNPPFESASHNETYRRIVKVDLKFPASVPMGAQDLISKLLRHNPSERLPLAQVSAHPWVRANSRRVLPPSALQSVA
Summary of the method: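 Recombinant human Aurora B (20 nM in pH 7.5 HEPES buffer with MgCl2, EGTA, DTT, Brij-35, BSA) preincubated with compound 15 min at RT. ADP formed quantified by ADP-Glo luminescence after ATP depletion (40 min) and detection (30 min). IC50 from four-parameter non-linear regression.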

human recombinant PLK4, sequence (O00444 whole entry): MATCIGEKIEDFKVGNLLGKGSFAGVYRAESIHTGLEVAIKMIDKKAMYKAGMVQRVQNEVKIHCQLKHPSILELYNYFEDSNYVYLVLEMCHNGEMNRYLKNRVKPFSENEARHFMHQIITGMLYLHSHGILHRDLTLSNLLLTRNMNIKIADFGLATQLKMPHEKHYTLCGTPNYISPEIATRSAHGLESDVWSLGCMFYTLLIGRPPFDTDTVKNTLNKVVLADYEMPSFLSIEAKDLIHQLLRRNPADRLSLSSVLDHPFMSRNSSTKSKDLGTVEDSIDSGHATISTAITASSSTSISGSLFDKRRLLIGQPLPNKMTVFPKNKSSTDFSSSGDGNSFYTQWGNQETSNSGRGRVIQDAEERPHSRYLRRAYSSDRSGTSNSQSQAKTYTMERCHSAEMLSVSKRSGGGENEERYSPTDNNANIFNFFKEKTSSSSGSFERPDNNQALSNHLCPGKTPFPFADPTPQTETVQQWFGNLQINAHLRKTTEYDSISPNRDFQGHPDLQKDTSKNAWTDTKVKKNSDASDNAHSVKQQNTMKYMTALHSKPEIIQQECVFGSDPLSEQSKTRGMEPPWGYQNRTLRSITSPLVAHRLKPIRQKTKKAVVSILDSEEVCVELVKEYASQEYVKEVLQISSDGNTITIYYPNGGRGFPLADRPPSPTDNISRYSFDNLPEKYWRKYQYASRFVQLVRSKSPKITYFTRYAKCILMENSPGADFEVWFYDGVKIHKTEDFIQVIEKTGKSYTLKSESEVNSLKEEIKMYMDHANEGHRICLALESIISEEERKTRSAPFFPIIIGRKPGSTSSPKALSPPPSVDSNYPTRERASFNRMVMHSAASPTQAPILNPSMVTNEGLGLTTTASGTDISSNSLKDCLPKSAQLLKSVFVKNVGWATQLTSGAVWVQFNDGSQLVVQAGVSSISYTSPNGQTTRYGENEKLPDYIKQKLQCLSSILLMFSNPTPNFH

Structure (SMILES) | IC50 (human recombinant PLK4) | [Aurora A IC50 (nM)]/[PLK4 IC50 (nM)] [1] | [Aurora B IC50 (nM)]/[PLK4 IC50 (nM)] [2] | IC50 (CHP-134 cells)
COc1ccc2c(c1)[C@]1(C[C@H]1c1ccc3c(Nc4cc(C(C)(C)O)cnc4OC)n[nH]c3c1)C(=O)N2 [Example 226, (1R,2S)-2-(3-{[5-(2-hydroxypropan-2-yl)-2-melhoxypyridin-3-yl]amino}-1H-indazol-6-yl)-5′-methoxyspiro[cyclopropane-1,3′-indol]-2′(1′H)-one] | 4.75 nM | 2759.6376 | 474.6155 | 2150 nM
COc1ccc2c(c1)[C@]1(C[C@H]1c1ccc3c(Nc4ccc(C(=O)N5C6CCC5COC6)nc4OC)n[nH]c3c1)C(=O)N2 [Example 232, (1R,2S)-5′-methoxy-2-(3-{[2-methoxy-6-(3-oxa-8-azabicyclo[3.2.1]octane-8-carbonyl)pyridin-3-yl]amino}-1H-indazol-6-yl)spiro[cyclopropane-1,3′-indol]-2′(1′H)-one] | 1.03 nM | 651.7909 | 105.5179 | 141 nM
COc1ccc2c(c1)[C@]1(C[C@H]1c1ccc3c(Nc4nn(C)c(=O)cc4OC)n[nH]c3c1)C(=O)N2 [Example 233, (1R,2S)-5′-methoxy-2-{3-[(4-methoxy-1-methyl-6-oxo-1,6-dihydropyridazin-3-yl)amino]-1H-indazol-6-yl)spiro[cyclopropane-1,3′-indol]-2′(1′H)-one] | 3.57 nM | 332.3068 | 107.2788 | 4800 nM
COc1ccc2c(c1)[C@]1(C[C@H]1c1ccc3c(Nc4cnc(S(C)(=O)=O)cc4OC)n[nH]c3c1)C(=O)N2 [Example 241, (1R,2S)-2-(3-{[6-(methanesulfonyl)-4-methoxypyridin-3-yl]amino}-1H-indazol-6-yl)-5′-methoxyspiro[cyclopropane-1,3′-indol]-2′(1′H)-one] | 2.49 nM | 2066.9875 | 253.4697 | 1100 nM
COc1ccc2c(c1)[C@]1(C[C@H]1c1ccc3c(Nc4ncc(S(C)(=O)=O)nc4OC)n[nH]c3c1)C(=O)N2 [Example 242, (1R,2S)-2-(3-{[5-(methanesulfonyl)-3-methoxypyrazin-2-yl]amino}-1H-indazol-6-yl)-5′-methoxyspiro[cyclopropane-1,3′-indol]-2′(1′H)-one] | 6.52 nM | 307.7159 | 129.0381 | 5510 nM
COc1ccc2c(c1)[C@]1(C[C@H]1c1ccc3c(Nc4ccc(C(=O)NCC(F)F)nc4OC)n[nH]c3c1)C(=O)N2 [Example 244, N-(2,2-difluoroethyl)-6-methoxy-5-({6-[(1R,2S)-5′-methoxy-2′-oxo-1′,2′-dihydrospiro[cyclopropane-1,3′-indol]-2-yl]-1H-indazol-3-yl}amino)pyridine-2-carboxamide] | 2.91 nM | 1578.3505 | 312.3 | 545 nM
COc1ccc2c(c1)[C@]1(C[C@H]1c1ccc3c(Nc4ncc(S(C)(=O)=O)cc4Cl)n[nH]c3c1)C(=O)N2 [Example 247, (1R,2S)-2-(3-{[3-chloro-5-(methanesulfonyl)pyridin-2-yl]amino}-1H-indazol-6-yl)-5′-methoxyspiro[cyclopropane-1,3′-indol]-2′(1′H)-one] | 3.73 nM | 1434.9223 | 423.6743 | 1010 nM

The next lines start with results.

IC50 (human recombinant PLK4) | [Aurora A IC50 (nM)]/[PLK4 IC50 (nM)] [1] | [Aurora B IC50 (nM)]/[PLK4 IC50 (nM)] [2] | Structure (SMILES) | IC50 (CHP-134 cells)
2.3 nM | 1004.7743 | 445.3125 | CCOc1nc(S(=O)(=O)N(C)C)ccc1Nc1n[nH]c2cc([C@@H]3C[C@@]34C(=O)Nc3ccc(OC)cc34)ccc12 [Example 223, 6-ethoxy-5-({6-[(1R,2S)-5′-methoxy-2′-oxo-1′,2′-dihydrospiro[cyclopropane-1,3′-indol]-2-yl]-1H-indazol-3-yl}amino)-N,N-dimethylpyridine-2-sulfonamide] | 163 nM
1.35 nM | 813.6599 | 340.4602 | CCS(=O)(=O)c1cnc(Nc2n[nH]c3cc([C@@H]4C[C@@]45C(=O)Nc4ccc(OC)cc45)ccc23)c(OC)c1 [Example 228, (1R,2S)-2-(3-{[5-(Ethanesulfonyl)-3-methoxypyridin-2-yl]amino}-1H-indazol-6-yl)-5′-methoxyspiro[cyclopropane-1,3′-indol]-2′(1′H)-one] | 180 nM
2.43 nM | 12432.2103 | 213.4346 | COc1ccc2c(c1)[C@]1(C[C@H]1c1ccc3c(Nc4ccc(C(=O)NCC5CC5)nc4OC)n[nH]c3c1)C(=O)N2 [Example 230, N-(cyclopropylmethyl)-6-methoxy-5-({6-[(1R,2S)-5′-methoxy-2′-oxo-1′,2′-dihydrospiro[cyclopropane-1,3′-indol]-2-yl]-1H-indazol-3-yl}amino)pyridine-2-carboxamide] | 395 nM
1.56 nM | 4955.7692 | 316.7307 | COc1ccc2c(c1)[C@]1(C[C@H]1c1ccc3c(Nc4ccc(C(=O)NC(C)C)nc4OC)n[nH]c3c1)C(=O)N2 [Example 231, 6-methoxy-5-({6-[(1R,2S)-5′-methoxy-2′-oxo-1′,2′-dihydrospiro[cyclopropane-1,3′-indol]-2-yl]-1H-indazol-3-yl}amino)-N-(propan-2-yl)pyridine-2-carboxamide] | 397 nM
2.29 nM | 608.9799 | 831.7349 | COc1ccc2c(c1)[C@]1(C[C@H]1c1ccc3c(Nc4cc(-c5ncco5)cnc4OC)n[nH]c3c1)C(=O)N2 [Example 234, (1R,2S)-5′-Methoxy-2-(3-{[2-methoxy-5-(1,3-oxazol-2-yl)pyridin-3-yl]amino}-1H-indazol-6-yl)spiro[cyclopropane-1,3′-indol]-2′(1′H)-one] | 276 nM
1.36 nM | 536.1 | 582.2189 | COc1ccc2c(c1)[C@]1(C[C@H]1c1ccc3c(Nc4cc(C)c(C(=O)N(C)C)nc4OC)n[nH]c3c1)C(=O)N2 [Example 238, 6-methoxy-5-({6-[(1R,2S)-5′-methoxy-2′-oxo-1′,2′-dihydrospiro[cyclopropane-1,3′-indol]-2-yl]-1H-indazol-3-yl}amino)-N,N,3-trimethylpyridine-2-carboxamide] | 133 nM
1.15 nM | 479.1122 | 164.5778 | COc1ccc2c(c1)[C@]1(C[C@H]1c1ccc3c(Nc4ccc(C(=O)N(C5CC5)C5CC5)nc4OC)n[nH]c3c1)C(=O)N2 [Example 243, N,N-dicyclopropyl-6-methoxy-5-({6-[(1R,2S)-5′-methoxy-2′-oxo-1′,2′-dihydrospiro[cyclopropane-1,3′-indol]-2-yl]-1H-indazol-3-yl}amino)pyridine-2-carboxamide] | 188 nM
0.738 nM | 1730.3523 | 319.6476 | COc1ccc2c(c1)[C@]1(C[C@H]1c1ccc3c(Nc4ccc(C(=O)N5[C@H](C)CCC[C@@H]5C)nc4OC)n[nH]c3c1)C(=O)N2 [Example 245, (1R,2S)-2-[3-({6-[(2R,6S)-2,6-dimethylpiperidine-1-carbonyl]-2-methoxypyridin-3-yl}amino)-1H-indazol-6-yl]-5′-methoxyspiro[cyclopropane-1,3′-indol]-2′(1′H)-one] | 131 nM
0.843 nM | 426.8090 | 176.8683 | COc1ccc2c(c1)[C@]1(C[C@H]1c1ccc3c(Nc4ccc(C(=O)N5CC6CCC(C5)O6)nc4OC)n[nH]c3c1)C(=O)N2 [Example 246, (1R,2S)-5′-methoxy-2-(3-{[2-methoxy-6-(8-oxa-3-azabicyclo[3.2.1]octane-3-carbonyl)pyridin-3-yl]amino}-1H-indazol-6-yl)spiro[cyclopropane-1,3′-indol]-2′(1′H)-one] | 68.4 nM
1.24 nM | 683.4543 | 206.5375 | COc1ccc2c(c1)[C@]1(C[C@H]1c1ccc3c(Nc4ncc(S(=O)(=O)C(C)C)cc4OC)n[nH]c3c1)C(=O)N2 [Example 248, (1R,2S)-5′-Methoxy-2-(3-{[3-methoxy-5-(propane-2-sulfonyl)pyridin-2-yl]amino}-1H-indazol-6-yl)spiro[cyclopropane-1,3′-indol]-2′(1′H)-one] | 120 nM
1.33 nM | 1734.2342 | 268.6936 | COc1ccc2c(c1)[C@]1(C[C@H]1c1ccc3c(Nc4ccc(C(=O)N(C)C)nc4Cl)n[nH]c3c1)C(=O)N2 [Example 251, 6-chloro-5-({6-[(1R,2S)-5′-methoxy-2′-oxo-1′,2′-dihydrospiro[cyclopropane-1,3′-indol]-2-yl]-1H-indazol-3-yl}amino)-N,N-dimethylpyridine-2-carboxamide] | 287 nM
